Measurements published in patent US20110118262A1, “Pyrrolidinyl and Piperidinyl Compounds Useful as NHE-1 Inhibitiors” (BOEHRINGER INGELHEIM INTERNATIONAL GMBH, priority 2008, published 2011).

The compounds below were run against T1, NHE-1 (Homo sapiens, UniProt P19634) (assay: Evaluation of NHE-1 Inhibition (pHi) in HT-29 cells). Conditions: BCECF dye, 50% inhibition of the intracellular pH recovery, read-out: NHE1 HT29 pHi IC50.
T1 construct: endogenous in cells; host or cells: HT-29
Type: cell-based
Experimental: Evaluation of NHE-1 Inhibition (pHi)
HT-29 cells resuspended in DMEM supplemented with 10% FBS, 1% NEAA, and 1% Penn-Strep are seeded at 10,000 cells/well in collagen coated 384 well plates which are then incubated for 24 hours at 37° C. The next day, the medium is removed and the cells are dye (Invitrogen's BCECF) loaded for 30 minutes at 37° C., washed three times with an acid loading buffer (10 mM NH4Cl, 1.8 mM CaCl2, 90 mM Choline Cl, 5 mM Glucose, 15 mM Hepes, 5 mM KCl, 1 mM MgCl2, adjusted to pH 7.5 with KOH) and further incubated at RT for 30 minutes.
At the end of the incubation, the buffer is removed and 5 uL of fresh acid loading buffer is added to each well to prevent the dessication of the cells. The plate is placed in a Hamamatsu FDSS6000 instrument and candidate compounds are added to the cells.

T1 sequence (P19634 whole entry): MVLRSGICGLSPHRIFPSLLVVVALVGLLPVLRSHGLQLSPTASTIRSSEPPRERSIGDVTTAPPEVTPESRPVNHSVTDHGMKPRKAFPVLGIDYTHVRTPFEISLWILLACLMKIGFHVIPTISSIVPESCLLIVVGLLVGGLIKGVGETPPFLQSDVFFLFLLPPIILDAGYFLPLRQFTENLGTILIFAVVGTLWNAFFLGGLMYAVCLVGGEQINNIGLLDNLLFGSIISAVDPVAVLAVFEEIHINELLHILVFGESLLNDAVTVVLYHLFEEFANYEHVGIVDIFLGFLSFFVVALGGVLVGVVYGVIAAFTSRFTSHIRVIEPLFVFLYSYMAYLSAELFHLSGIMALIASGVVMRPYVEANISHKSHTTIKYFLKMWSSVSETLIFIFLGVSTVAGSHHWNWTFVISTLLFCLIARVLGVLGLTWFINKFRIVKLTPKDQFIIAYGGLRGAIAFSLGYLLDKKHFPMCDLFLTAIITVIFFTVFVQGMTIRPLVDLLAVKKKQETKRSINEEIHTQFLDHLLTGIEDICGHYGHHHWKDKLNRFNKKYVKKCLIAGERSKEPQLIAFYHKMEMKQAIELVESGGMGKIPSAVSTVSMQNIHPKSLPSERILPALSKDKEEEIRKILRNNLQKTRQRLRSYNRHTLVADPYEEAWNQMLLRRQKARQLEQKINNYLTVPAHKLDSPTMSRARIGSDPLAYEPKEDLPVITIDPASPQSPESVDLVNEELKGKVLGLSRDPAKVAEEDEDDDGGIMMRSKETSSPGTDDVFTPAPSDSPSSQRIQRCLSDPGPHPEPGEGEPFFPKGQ

SMILES	IC50 [nM]
COc1ccc(CC(N)C(=O)N2CCC(c3ccc(C(=O)NC(=N)N)cc3C(F)(F)F)CC2)cc1 (centres unmarked)	37
CN(C)C(=O)c1ccc(C(=O)N2CCC(c3ccc(C(=O)NC(=N)N)cc3C(F)(F)F)CC2)cc1 [4-[4-(4-Guanidinocarbonyl-2-trifluoromethyl-phenyl)-piperidine-1-carbonyl]-N,N-dimethyl-benzamide]	48
CN(C)S(=O)(=O)c1ccc(C(=O)N2CCC(c3ccc(C(=O)NC(=N)N)cc3C(F)(F)F)CC2)cc1 [4-[4-(4-Guanidinocarbonyl-2-trifluoromethyl-phenyl)-piperidine-1-carbonyl]-N,N-dimethyl-benzenesulfonamide]	36
CNC(=O)c1ccc(C(=O)N2CCC(c3ccc(C(=O)NC(=N)N)cc3C(F)(F)F)CC2)cc1 [4-[4-(4-Guanidinocarbonyl-2-trifluoromethyl-phenyl)-piperidine-1-carbonyl]-N-methyl-benzamide]	43
CNS(=O)(=O)c1ccc(C(=O)N2CCC(c3ccc(C(=O)NC(=N)N)cc3C(F)(F)F)CC2)cc1 [4-[4-(4-Guanidinocarbonyl-2-trifluoromethyl-phenyl)-piperidine-1-carbonyl]-N-methyl-benzenesulfonamide]	51
N=C(N)NC(=O)c1ccc(C2CCN(C(=O)c3ccc(C(N)=O)cc3)CC2)c(C(F)(F)F)c1 [4-[4-(4-Guanidinocarbonyl-2-trifluoromethyl-phenyl)-piperidine-1-carbonyl]-benzamide]	28
COC(=O)c1ccc(C(=O)N2CCC(c3ccc(C(=O)NC(=N)N)cc3C(F)(F)F)CC2)cc1 [4-[4-(4-Guanidinocarbonyl-2-trifluoromethyl-phenyl)-piperidine-1-carbonyl]-benzoic acid methyl ester]	183
N=C(N)NC(=O)c1ccc(C2CCN(C(=O)c3ccc(C(=O)O)cc3)CC2)c(C(F)(F)F)c1 [4-[4-(4-Guanidinocarbonyl-2-trifluoromethyl-phenyl)-piperidine-1-carbonyl]-benzoic acid]	27
CNS(=O)(=O)c1ccc(Oc2ccc(C(=O)N3CCC(c4ccc(C(=O)NC(=N)N)cc4C(F)(F)F)CC3)cn2)cc1 [4-{5-[4-(4-Guanidinocarbonyl-2-trifluoromethyl-phenyl)-piperidine-1-carbonyl]-pyridin-2-yloxy}-N-methyl-benzenesulfonamide]	92
COc1cc(C2CCN(C(=O)[C@H](OC(C)=O)c3ccccc3)CC2)c(C(F)(F)F)cc1C(=O)NC(=N)N [(R)-Acetic acid 2-[4-(4-guanidinocarbonyl-5-methoxy-2-trifluoromethyl-phenyl)-piperidin-1-yl]-2-oxo-1-phenyl-ethyl ester]	110
Cn1cnc(C[C@@H](N)C(=O)N2CCC(c3ccc(C(=O)NC(=N)N)cc3C(F)(F)F)CC2)c1 [(R)-N-(4-{1-[-2--Amino-3-(1-methyl-1H-imidazol-4-yl)-propionyl]-piperidin-4-yl}-3-trifluoromethyl-benzoyl)-guanidine]	43
N=C(N)NC(=O)c1ccc([C@H]2CCN(C(=O)c3ccc(F)cc3)C2)c(C(F)(F)F)c1 [(R)-N-{4-[1-(4-fluoro-benzoyl)-pyrrolidin-3-yl]-3-trifluoromethyl-benzoyl}-guanidine]	24
C[C@@](N)(Cc1ccccc1)C(=O)N1CCC(c2ccc(C(=O)NC(=N)N)cc2C(F)(F)F)CC1 [(R)-N-{4-[1-(-2--Amino-2-methyl-3-phenyl-propionyl)-piperidin-4-yl]-3-trifluoromethyl-benzoyl}-guanidine]	24
N=C(N)NC(=O)c1ccc([C@H]2CCN(C(=O)c3ccco3)C2)c(C(F)(F)F)c1 [(R)-N-{4-[1-(Furan-2-carbonyl)-pyrrolidin-3-yl]-3-trifluoromethyl-benzoyl}-guanidine]	28
COc1cc(C2CCN(C(=O)[C@@H](OC(C)=O)c3ccccc3)CC2)c(C(F)(F)F)cc1C(=O)NC(=N)N [(S)-Acetic acid 2--[4-(4-guanidinocarbonyl-5-methoxy-2-trifluoromethyl-phenyl)-piperidin-1-yl]-2-oxo-1-phenyl-ethyl ester]	92
Cn1cnc(C[C@H](N)C(=O)N2CCC(c3ccc(C(=O)NC(=N)N)cc3C(F)(F)F)CC2)c1 [(S)-N-(4-{1-[2-Amino-3-(1-methyl-1H-imidazol-4-yl)-propionyl]-piperidin-4-yl}-3-trifluoromethyl-benzoyl)-guanidine]	49
COc1cc(C2CCN(C(=O)[C@@](C)(O)c3ccccc3)CC2)c(C(F)(F)F)cc1C(=O)NC(=N)N [(S)-N-{4-[1-(2-Hydroxy-2-phenyl-propionyl)-piperidin-4-yl]-2-methoxy-5-trifluoromethyl-benzoyl}-guanidine]	200
Cc1cc(C2CCN(C(=O)CN3CCCC3=O)CC2)c(C(F)(F)F)cc1C(=O)NC(=N)N [N-(2-Methyl-4-{1-[2-(2-oxo-pyrrolidin-1-yl)-acetyl]-piperidin-4-yl}-5-trifluoromethyl-benzoyl)-guanidine]	37
CS(=O)(=O)c1ccccc1Oc1cc(C(=O)N2CCC(c3ccc(C(=O)NC(=N)N)cc3C(F)(F)F)CC2)ccn1 [N-(4-{1-[2-(2-Methanesulfonyl-phenoxy)-pyridine-4-carbonyl]-piperidin-4-yl}-3-trifluoromethyl-benzoyl)-guanidine]	76
COc1ccccc1-c1cc(C(=O)N2CCC(c3ccc(C(=O)NC(=N)N)cc3C(F)(F)F)CC2)ccn1 [N-(4-{1-[2-(2-Methoxy-phenyl)-pyridine-4-carbonyl]-piperidin-4-yl}-3-trifluoromethyl-benzoyl)-guanidine]	200
N=C(N)NC(=O)c1ccc(C2CCN(C(=O)Cc3ccc(F)cc3)CC2)c(C(F)(F)F)c1 [N-(4-{1-[2-(4-Fluoro-phenyl)-acetyl]-piperidin-4-yl}-3-trifluoromethyl-benzoyl)-guanidine]	135
COc1ccc(CC(=O)N2CCC(c3ccc(C(=O)NC(=N)N)cc3C(F)(F)F)CC2)cc1 [N-(4-{1-[2-(4-Methoxy-phenyl)-acetyl]-piperidin-4-yl}-3-trifluoromethyl-benzoyl)-guanidine]	140

Second part, the compound after the results:

IC50 [nM]	SMILES
13	N=C(N)NC(=O)c1ccc(C2CCN(C(=O)c3ccc(Cl)c(S(N)(=O)=O)c3)CC2)c(C(F)(F)F)c1 [2-Chloro-5-[4-(4-guanidinocarbonyl-2-trifluoromethyl-phenyl)-piperidine-1-carbonyl]-benzenesulfonamide]
15	N=C(N)NC(=O)c1ccc(C2CCN(C(=O)C(N)CC(N)=O)CC2)c(C(F)(F)F)c1 (centres unmarked) [3-Amino-4-[4-(4-guanidinocarbonyl-2-trifluoromethyl-phenyl)-piperidin-1-yl]-4-oxo-butyramide]
6	N=C(N)NC(=O)c1ccc(C2CCN(C(N)=O)CC2)c(C(F)(F)F)c1 [4-(4-Guanidinocarbonyl-2-trifluoromethyl-phenyl)-piperidine-1-carboxylic acid amide]
10	CN(C)C(=O)N1CCC(c2ccc(C(=O)NC(=N)N)cc2C(F)(F)F)CC1 [4-(4-Guanidinocarbonyl-2-trifluoromethyl-phenyl)-piperidine-1-carboxylic acid dimethylamide]
13	N=C(N)NC(=O)c1ccc(C2CCN(C(=O)c3ccc(S(N)(=O)=O)cc3)CC2)c(C(F)(F)F)c1 [4-[4-(4-Guanidinocarbonyl-2-trifluoromethyl-phenyl)-piperidine-1-carbonyl]-benzenesulfonamdide]
24	N=C(N)NC(=O)c1ccc(C2CCN(C(=O)[C@H](N)c3ccccc3)CC2)c(C(F)(F)F)c1 [(R)-N-{4-[1-(2-Amino-2-phenyl-acetyl)-piperidin-4-yl]-3-trifluoromethyl-benzoyl}-guanidine]
9	N=C(N)NC(=O)c1ccc(C2CCN(C(=O)[C@@H](N)CC(=O)O)CC2)c(C(F)(F)F)c1 [(S)-3-Amino-4-[4-(4-guanidinocarbonyl-2-trifluoromethyl-phenyl)-piperidin-1-yl]-4-oxo-butyric acid]
22	Cn1cncc1C[C@H](N)C(=O)N1CCC(c2ccc(C(=O)NC(=N)N)cc2C(F)(F)F)CC1 [(S)-N-(4-{1-[2-Amino-3-(3-methyl-3H-imidazol-4-yl)-propionyl]-piperidin-4-yl}-3-trifluoromethyl-benzoyl)-guanidine]
21	N=C(N)NC(=O)c1ccc(C2CCN(C(=O)[C@@H](N)c3ccccc3)CC2)c(C(F)(F)F)c1 [(S)-N-{4-[1-(-2-Amino-2-phenyl-acetyl)-piperidin-4-yl]-3-trifluoromethyl-benzoyl}-guanidine]
12	C[S+]([O-])CC[C@H](N)C(=O)N1CCC(c2ccc(C(=O)NC(=N)N)cc2C(F)(F)F)CC1 (stereo partly drawn) [(S)-N-{4-[1-(-2-Amino-4-methanesulfinyl-butyryl)-piperidin-4-yl]-3-trifluoromethyl-benzoyl}-guanidine]
11	N=C(N)NC(=O)c1ccc(C2CCN(C(=O)[C@@H]3CCC(=O)N3)CC2)c(C(F)(F)F)c1 [(S)-N-{4-[1-(-5-Oxo-pyrrolidine-2-carbonyl)-piperidin-4-yl]-3-trifluoromethyl-benzoyl}-guanidine]
18	N=C(N)NC(=O)c1ccc([C@@H]2CCN(C(=O)c3ccc(F)cc3)C2)c(C(F)(F)F)c1 [(S)-N-{4-[-1-(4-fluoro-benzoyl)-pyrrolidin-3-yl]-3-trifluoromethyl-benzoyl}-guanidine]
17	N=C(N)NC(=O)c1ccc([C@@H]2CCN(C(=O)c3ccco3)C2)c(C(F)(F)F)c1 [(S)-N-{4-[-1-(Furan-2-carbonyl)-pyrrolidin-3--yl]-3-trifluoromethyl-benzoyl}-guanidine]
